Patent publication US10815534B2, “Methods and materials for treating estrogen receptor positive breast cancer” (Mayo Foundation for Medical Education and Research, priority 2016, dated 2020)

Key:
ERα [1] = molecular target: T1, ERα (Homo sapiens, UniProt P03372); conditions: FIG. 7, ERα/GADPH fold change
T1 sequence (P03372 1-595): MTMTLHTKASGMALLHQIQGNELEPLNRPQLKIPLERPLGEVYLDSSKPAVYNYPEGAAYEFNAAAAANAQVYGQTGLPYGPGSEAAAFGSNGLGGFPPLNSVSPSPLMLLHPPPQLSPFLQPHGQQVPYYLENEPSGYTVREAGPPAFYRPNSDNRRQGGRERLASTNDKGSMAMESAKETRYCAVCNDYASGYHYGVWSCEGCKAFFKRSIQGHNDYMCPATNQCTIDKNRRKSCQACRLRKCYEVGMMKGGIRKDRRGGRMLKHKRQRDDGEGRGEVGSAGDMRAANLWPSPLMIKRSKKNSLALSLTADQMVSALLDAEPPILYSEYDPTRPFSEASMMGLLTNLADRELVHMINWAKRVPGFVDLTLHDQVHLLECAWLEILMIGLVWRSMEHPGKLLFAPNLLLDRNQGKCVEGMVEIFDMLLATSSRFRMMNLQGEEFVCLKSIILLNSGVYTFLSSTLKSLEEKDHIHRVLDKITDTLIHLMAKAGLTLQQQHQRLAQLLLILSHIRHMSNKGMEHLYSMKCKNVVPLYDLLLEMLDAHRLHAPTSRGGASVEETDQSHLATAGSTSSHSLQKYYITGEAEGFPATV

ERα [2] = molecular target: T1, ERα; conditions: 0-40 μM, traces above the background
[3] = tested on: human lymphoblastoid cells; assay: Sensitivity of human lymphoblastoid cell lines selected by rs6990851 genotype (AA, AG, GG) to aromatase inhibitors; type: cell-based; conditions: rs6990851 GG versus AA and AG lymphoblastoid cells
[4] = tested on: letrozole resistant cells; assay: Sensitization of letrozole resistant cells by overexpression of CSMD1; type: cell-based; conditions: letrozole resistant cells overexpressing CSMD1
ERα+ breast cancer cells = assay: Sensitization of ERα+ breast cancer cells by overexpression of CSMD1; type: cell-based; conditions: ERα+ breast cancer cells overexpressing CSMD1

ERα degradation (ERα [1]) | direct binding to ERα (SPR sensograms) (ERα [2]) | Structure (SMILES) | sensitivity of homozygous GG variant cells to treatment [3] | sensitization by CSMD1 overexpression [4] | sensitization by CSMD1 overexpression (ERα+ breast cancer cells)
not | No interactions were observed | N#Cc1ccc(C(c2ccc(C#N)cc2)n2cncn2)cc1 [letrozole] | not observed | not | 
 |  | CC(C)(C#N)c1cc(Cn2cncn2)cc(C(C)(C)C#N)c1 [anastrozole] | more sensitive | sensitized | sensitized
